# Measured values taken from patent publication US9278990B2, “Substituted nucleotide analogs” (priority 2010, dated 2016).
# B1: IFN-Lambda 1 (protein, UniProt Q8IU54 20-200, looked up)
# Interferon lambda-1: GPVPTSKPTTTGKGCHIGRFKSLSPQELASFKKARDALEESLKLKNWSCSSPVFPGNWDLRLLQVRERPVALEAELALTLKVLEAAAGPALEDVLDQPLHTLHHILSQLQACIQPQPTAGPRPRGRLHHWLHRLQEAPKKESAGCLEASVTFNLFRLLTRDLKYVADGNLCLRTSTHPEST
# B2: IFN-Lambda 2 (protein, UniProt Q8IZJ0 26-200, looked up)
# Interferon lambda-2: VPVARLHGALPDARGCHIAQFKSLSPQELQAFKRAKDALEESLLLKDCRCHSRLFPRTWDLRQLQVRERPMALEAELALTLKVLEATADTDPALVDVLDQPLHTLHHILSQFRACIQPQPTAGPRTRGRLHHWLYRLQEAPKKESPGCLEASVTFNLFRLLTRDLNCVASGDLCV
# B3: IFN-Lambda 3 (protein, UniProt Q8IZI9 22-196, looked up)
# Interferon lambda-3: VPVARLRGALPDARGCHIAQFKSLSPQELQAFKRAKDALEESLLLKDCKCRSRLFPRTWDLRQLQVRERPVALEAELALTLKVLEATADTDPALGDVLDQPLHTLHHILSQLRACIQPQPTAGPRTRGRLHHWLHRLQEAPKKESPGCLEASVTFNLFRLLTRDLNCVASGDLCV
# Target: T1, NS5B570-Con1 (Delta-21) (Hepatitis C virus genotype 1b, UniProt Q9WMX2)
# T1 construct: NS5B570-Con1 (Delta-21)
# Experiment: NS5B inhibition assay
# Format: biochemical, HCV
# Settings: IC50 value, incorporation of tritiated NMP into acid-insoluble RNA, 2 hours at 37° C.
# Description: The enzyme activity of NS5B570-Con1 (Delta-21) was measured as an incorporation of tritiated NMP into acid-insoluble RNA products. The complementary IRES (cIRES) RNA sequence was used as a template, corresponding to 377 nucleotides from the 3′-end of HCV (−) strand RNA of the Con-1 strain, with a base content of 21% Ade, 23% Ura, 28% Cyt, and 28% Gua. The cIRES RNA was transcribed in vitro using a T7 transcription kit (Ambion, Inc.) and purified using the Qiagen RNeasy maxi kit. HCV polymerase reactions contained 50 nM NS5B570-Con1, 50 nM cIRES RNA, about 0.5 μCi tritiated NTP, 1 μM of competing cold NTP, 20 mM NaCl, 40 mM Tris-HCl (pH 8.0), 4 mM dithiothreitol, and 4 mM MgCl2. Standard reactions were incubated for 2 hours at 37° C., in the presence of increasing concentration of inhibitor. At the end of the reaction, RNA was precipitated with 10% TCA, and acid-insoluble RNA products were filtered on a size exclusion 96-well plate. After washing of the plate, scintillation liquid was added and radio labeled RNA products were detected according to standard procedures with a Trilux Topcount scintillation counter.
row,Molecule,IC50 [µM]
1,"C[C@@]1(O)[C@H](O)[C@@H](COP(O)(=S)OP(=O)(O)OP(=O)(O)O)O[C@H]1n1cnc2c(=O)[nH]c(N)nc21 (single isomer, unassigned) [Compound 5h]",1 to 10
2,"C[C@@]1(F)[C@H](O)[C@@H](COP(O)(=S)OP(=O)(O)OP(=O)(O)O)O[C@H]1n1cnc2c(=O)[nH]c(N)nc21 (single isomer, unassigned) [Compound 5e]",< 1
3,"C[C@@]1(F)[C@H](O)[C@@H](COP(O)(=S)OP(=O)(O)OP(=O)(O)O)O[C@H]1n1ccc(=O)[nH]c1=O (single isomer, unassigned) [Compound 5d]",10 to 100
4,"C[C@@]1(F)[C@H](O)[C@@H](COP(O)(=S)OP(=O)(O)OP(=O)(O)O)O[C@H]1n1ccc(=O)[nH]c1=O (single isomer, unassigned) [Compound 5c]",1 to 10
5,"C[C@@]1(O)[C@H](O)[C@@H](COP(O)(=S)OP(=O)(O)OP(=O)(O)O)O[C@H]1n1cnc2c(=O)[nH]c(N)nc21 (single isomer, unassigned) [Compound 5g]",< 1
6,"C[C@@]1(O)[C@H](O)[C@@H](COP(O)(=S)OP(=O)(O)OP(=O)(O)O)O[C@H]1n1ccc(=O)[nH]c1=O (single isomer, unassigned) [Compound 5a]",10 to 100
7,"C[C@@]1(O)[C@H](O)[C@@H](COP(O)(=S)OP(=O)(O)OP(=O)(O)O)O[C@H]1n1ccc(=O)[nH]c1=O (single isomer, unassigned) [Compound 5b]",< 1

# Same assay, conditions: read-out: IC50 value, incorporation of tritiated NMP into acid-insoluble RNA, 2 hours at 37° C.
row,Molecule,IC50 [µM]
1,"C[C@@]1(F)[C@H](O)[C@@H](COP(O)(=S)OP(=O)(O)OP(=O)(O)O)O[C@H]1n1cnc2c(=O)[nH]c(N)nc21 (single isomer, unassigned) [Compound 5f]",< 1

# Test system: HCV genotype 1b HCV replicon harbored in Huh7 cells
# Experiment: Combination testing in HCV replicon (CalcuSyn CI and MacSynergy II synergy volume)
# Format: cell-based
# Settings: combination of compound 3b with the listed combination compound; MacSynergy II (Bliss independence); 72 h; 25-100 synergistic, >100 strongly synergistic
# Description: Two or more test compounds were tested in combination with each other using an HCV genotype 1b HCV replicon harbored in Huh7 cells with a stable luciferase (LUC) reporter. Cells were cultured under standard conditions in Dulbecco's modified Eagle's medium (DMEM; Mediatech Inc, Herndon, Va.) containing 10% heat-inactivated fetal bovine serum (FBS; Mediatech Inc, Herndon, Va.) 2 mM L-glutamine, and nonessential amino acids (JRH Biosciences). HCV replicon cells were plated in a 96-well plate at a density of 10^4 cells per well in DMEM with 10% FBS. […] The cells were incubated with no compound as a control, with the test compounds, or the combination of compounds for 72 h. The direct effects of the combination of the test compounds were examined using a luciferase (LUC) based reporter as determined by the Bright-Glo Luciferase Assay (Promega, Madison, Wis.). Dose-response curves were determined for individual compounds and fixed ratio combinations of two or more test compounds.
# The effects of test compound combinations were evaluated by two separate methods. In the Loewe additivity model, the experimental replicon data was analyzed by using CalcuSyn (Biosoft, Ferguson, Mo.), a computer program based on the method of Chou and Talalay. The program uses the experimental data to calculate a combination index (CI) value for each experimental combination tested. A CI value of <1 indicates a synergistic effect, a CI value of 1 indicates an additive effect, and a CI value of >1 indicates an antagonistic effect.
# The second method utilized for evaluating combination effects used a program called MacSynergy II. MacSynergy II software was kindly provided by Dr. M. Prichard (University of Michigan). The Prichard Model allows for a three-dimensional examination of drug interactions and a calculation of the synergy volume (units: μM^2 %) generated from running the replicon assay using a checkerboard combination of two or more inhibitors. The volumes of synergy (positive volumes) or antagonism (negative volumes) represent the relative quantity of synergism or antagonism per change in the concentrations of the two drugs. Synergy and antagonism volumes are defined based on the Bliss independence model. In this model, synergy volumes of less than −25 indicate antagonistic interactions, volumes in the −25-25 range indicate additive behavior, volumes in the 25-100 range indicate synergistic behavior and volumes >100 indicate strong synergistic behavior.
row,Molecule,Synergy Volume [μM^2%]
1,CC(C)(C)C#Cc1cc(N(C(=O)[C@H]2CC[C@H](C)CC2)[C@H]2CC[C@H](O)CC2)c(C(=O)O)s1 [VX-222],38
2,COc1nc(N)nc2c1ncn2[C@@H]1O[C@H](COP(=O)(N[C@@H](C)C(=O)OCC(C)(C)C)Oc2cccc3ccccc23)[C@@H](O)[C@@]1(C)O (stereo partly shown) [INX-189],65
3,C[C@@]1(F)[C@H](O)[C@@H](CO)O[C@H]1n1ccc(N)nc1=O [PSI-6130],15
4,COc1ccc2c(O[C@@H]3C[C@H]4C(=O)N[C@]5(C(=O)O)C[C@H]5/C=C\CCCCC[C@H](NC(=O)OC5CCCC5)C(=O)N4C3)cc(-c3csc(NC(C)C)n3)nc2c1 [BILN-2061],31
5,COc1ccc2c(O[C@@H]3C[C@H]4C(=O)N[C@]5(C(=O)NS(=O)(=O)C6CC6)C[C@H]5/C=C\CCCCN(C)C(=O)[C@@H]4C3)cc(-c3nc(C(C)C)cs3)nc2c1C [TMC-435],126
6,CC(C)OC(=O)[C@H](C)NP(=O)(OC[C@H]1O[C@@H](n2ccc(=O)[nH]c2=O)[C@](C)(F)[C@@H]1O)Oc1ccccc1 (stereo partly shown) [PSI-7851],0
7,CC(C)(C)OC(=O)N[C@H]1CCCCC/C=C\[C@@H]2C[C@@]2(C(=O)NS(=O)(=O)C2CC2)NC(=O)[C@@H]2C[C@@H](OC(=O)N3Cc4cccc(F)c4C3)CN2C1=O [ITMN-191],126
8,CCc1cc(CC[C@]2(C3CCCC3)CC(O)=C(Cc3nc4nc(C)cc(C)n4n3)C(=O)O2)cc(CC)n1 [Filibuvir],23
9,"NC(=O)c1ncn([C@@H]2O[C@H](CO)[C@@H](O)[C@H]2O)n1 [Ribavirin, ribavirin]",22
10,CCOc1nc(N)nc2c1ncn2[C@@H]1O[C@@H]2COP(=O)(OC(C)C)O[C@H]2[C@@]1(C)F (stereo partly shown) [PSI-938],27
11,COC(=O)N[C@H](C(=O)N1CCC[C@H]1c1nc(-c2ccc(-c3ccc(-c4c[nH]c([C@@H]5CCCN5C(=O)[C@@H](NC(=O)OC)C(C)C)n4)cc3)cc2)c[nH]1)C(C)C [BMS-790052],26
12,"CCC[C@H](NC(=O)[C@@H]1[C@H]2CCC[C@H]2CN1C(=O)[C@@H](NC(=O)[C@@H](NC(=O)c1cnccn1)C1CCCCC1)C(C)(C)C)C(=O)C(=O)NC1CC1 [VX-950, Telaprevir]",76
13,CNC(=O)c1c(-c2ccc(F)cc2)oc2cc(N(CCO)S(C)(=O)=O)c(C3CC3)cc12 [HCV-796],31
14,Fc1ccccc1-c1nc2ccn(Cc3ccc(-c4ccc(C(F)(F)F)cc4C(F)(F)F)nn3)cc-2n1 [GS-9190],79
15,B1,116
16,B2,34
17,B3,35
